Type in all cases: in vivo, mouse
Assay [1] concerns Balb/c mice with ovalbumin-induced allergic rhinitis. Put plainly: Sneezing, ovalbumin-induced allergic rhinitis mice. Conditions: OVA allergic rhinitis; oral daily 8 days from day 20, 10 mg/kg (dexamethasone 2 mg/kg); measured day 27; vs vehicle group. The method, then:
(§1) A 0.2 mL dose of 50 μg ovalbumin (OVA) and 2 mg Alum mixture was administered to 6-week-old female Balb/c mice (Japan SLC Inc.) (day 0 of the example). Alum was used as an adjuvant. Seven days later and 14 days later, the Balb/c mice were immunized again with 0.2 mL injections of the above mixture. Starting on day 20, mice were orally treated with 10 mg/kg of norathyriol, 10 mg/kg of mangiferin 8a, 10 mg/kg of tofacitinib (JAK inhibitor), 2 mg/kg of dexamethasone (steroid) and 10 mg/kg of olopatadine (antihistamine) daily for 8 consecutive days. Starting on day 21, 400 μg OVA was administered intranasally, and sneezing was measured on day 27. Note that tofacitinib, dexamethasone, and olopatadine are currently in clinical use in allergic rhinitis and were used as control drugs in this example.
(§2) The group that was just immunized with OVA is called the subject group, the one that received norathyriol is called the norathyriol group, the one that received mangiferin 8a is called the mangiferin 8a group, the one that received tofacitinib is called the tofacitinib group, the one that received dexamethasone is called the dexamethasone group, and the one that received olopatadine is called the olopatadine group. Each group consisted of five animals.

For another assay, the system named is IgE antibody. Put plainly: Serum IgE antibody ELISA, bronchial asthma mice. Conditions: OVA bronchial asthma; serum day 28; oral 10 mg/kg (dexamethasone 2 mg/kg); control 73, vehicle 117. The method, then: as §1, with “cough” for “sneezing”
Serum was collected from day 28 mice in Examples 14, and IgE antibody production was measured by enzyme-linked immunosorbent assay (ELISA). This assay was performed using a mouse IgE antibody ELISA kit (R&D).
A general note: An ELISA detects its analyte on a solid surface through an enzyme-linked reagent.

For the next assay, the system named is IL-17. The assay can be described thus: Serum IL-17 ELISA, bronchial asthma mice. Conditions: OVA bronchial asthma; serum day 28; oral 10 mg/kg (dexamethasone 2 mg/kg); control 80, vehicle 898. The method, then:
as §1, with “cough” for “sneezing”
Serum was collected from day 28 mice in Examples 14, and IL-17 production was measured by enzyme-linked immunosorbent assay (ELISA). This assay was performed using a mouse IL-17 ELISA kit (R&D).

Assay [2] concerns Balb/c mice with ovalbumin-induced allergic rhinitis. Put plainly: Nose scratching behavior, ovalbumin-induced allergic rhinitis mice. Conditions: OVA allergic rhinitis; oral daily 8 days from day 20, 10 mg/kg (dexamethasone 2 mg/kg); measured day 27; vs vehicle group. The method, then: as §1, with “nose-scratching behavior” for “sneezing”
as §2

The test system of another assay is IL-4. Put plainly: Serum IL-4 ELISA, bronchial asthma mice. Conditions: OVA bronchial asthma; serum day 28; oral 10 mg/kg (dexamethasone 2 mg/kg); control 282, vehicle 863. The method, then: as §1, with “cough” for “sneezing”
Serum was collected from day 28 mice in Examples 14, and IL-4 production was measured by enzyme-linked immunosorbent assay (ELISA). This assay was performed using a mouse IL-4 ELISA kit (R&D).

Assay [3] relates to IL-5. The assay can be described thus: Serum IL-5 ELISA, bronchial asthma mice. Conditions: OVA bronchial asthma; serum day 28; oral 10 mg/kg (dexamethasone 2 mg/kg); control 80, vehicle 992. How it is done: as §1, with “cough” for “sneezing”
Serum was collected from day 28 mice in Examples 14, and IL-5 production was measured by enzyme-linked immunosorbent assay (ELISA). This assay was performed using a mouse IL-5 ELISA kit (R&D).

Another assay deals with OVA-IgE antibody. The assay can be described thus: Serum OVA-IgE antibody ELISA, bronchial asthma mice. Conditions: serum day 28, oral 10 mg/kg (dexamethasone 2 mg/kg), control 2.4, vehicle 66. How it is done:
as §1, with “cough” for “sneezing”
Serum was collected from day 28 mice in Examples 14, and OVA-IgE antibody production was measured by enzyme-linked immunosorbent assay (ELISA). This assay was performed using a mouse OVA-IgE antibody ELISAkit (FUJIFILM Wako).

The subject of assay [4] is IL-5. Put plainly: Serum IL-5 ELISA, allergic rhinitis mice. Conditions: OVA allergic rhinitis; serum day 28; oral 10 mg/kg (dexamethasone 2 mg/kg); control 151, vehicle 1010. The method, then:
as §1, with “nose-scratching behavior” for “sneezing”
Serum was collected from day 28 mice in Examples 6 and 7, and IL-5 production was measured by enzyme-linked immunosorbent assay (ELISA). This assay was performed using a mouse IL-5 ELISA kit (R&D).

Assay [5] concerns Balb/c mice with ovalbumin-induced bronchial asthma. The assay can be described thus: Cough, ovalbumin-induced bronchial asthma mice. Conditions: OVA bronchial asthma; oral daily 8 days from day 20, 10 mg/kg (dexamethasone 2 mg/kg); measured day 27; vs vehicle group. The method, then: as §1, with “cough” for “sneezing”
as §2

As for `O=c1c2cc(O)c(O)cc2oc2cc(O)cc(O)c12` [norathyriol, 1,3,6,7-tetrahydroxyxanthone], the number of sneezing result in assay [1] was “significantly decreased the number of sneezing”. Also, the “amount of IgE antibody” value in the assay with IgE antibody is reported as 88 ng/mL. The “amount of IL-17” value in the assay on IL-17 is 530 pg/mL. Also, the “number of nose scratches” value in assay [2] was “significantly decreased the number of nose scratches”. Also, in the assay with IL-4, the “amount of IL-4” value amounted to 545 pg/mL. In addition, the “amount of IL-5” value with IL-5 [3] stood at 601 pg/mL; in the assay with IL-5 [4] it was 633 pg/mL. In addition, in the assay on OVA-IgE antibody, the “amount of OVA-IgE antibody” value came to 28 U/mL. Also, in assay [5], the number of coughs result is given as “significantly decreased the number of coughs”.
Take `C[C@@H]1C[C@H]2[C@@H]3CCC4=CC(=O)C=C[C@]4(C)[C@@]3(F)[C@@H](O)C[C@]2(C)[C@@]1(O)C(=O)CO` [dexamethasone]: the “amount of IgE antibody” value in the assay with IgE antibody is reported as 34 ng/mL. In the assay on IL-17, the “amount of IL-17” value was 257 pg/mL. Besides, the “amount of IL-4” value with IL-4 is listed as 359 pg/mL. The “amount of IL-5” value in the assay with IL-5 [3] is given as 286 pg/mL; in the assay on IL-5 [4], 314 pg/mL. Besides, in the assay with OVA-IgE antibody, the “amount of OVA-IgE antibody” value is 18 U/mL.
As to `CN(C)CC/C=C1/c2ccccc2COc2ccc(CC(=O)O)cc21` [olopatadine], in assay [1], the number of sneezing entry is recorded as “significantly decreased the number of sneezing”. In the assay on IgE antibody, the “amount of IgE antibody” value stood at 126 ng/mL. Further, the “amount of IL-17” value in the assay on IL-17 was 848 pg/mL. The “number of nose scratches” value in assay [2] is reported as “significantly decreased the number of nose scratches”. For the same compound, in the assay with IL-4, the “amount of IL-4” value is recorded as 781 pg/mL. For the same compound, the “amount of IL-5” value came out at 866 pg/mL with IL-5 [3] and 880 pg/mL in the assay on IL-5 [4]. For the same compound, in the assay on OVA-IgE antibody, the “amount of OVA-IgE antibody” value was 69 U/mL. Also, in assay [5], the number of coughs entry is “significantly decreased the number of coughs”.
Consider `C[C@@H]1CCN(C(=O)CC#N)C[C@@H]1N(C)c1ncnc2[nH]ccc12` [tofacitinib], for which the number of sneezing result in assay [1] is “significantly decreased the number of sneezing”. Also, in the assay with IgE antibody, the “amount of IgE antibody” value was found to be 101 ng/mL. Besides, the “amount of IL-17” value in the assay on IL-17 was determined as 844 pg/mL. The “number of nose scratches” value in assay [2] is on record as “significantly decreased the number of nose scratches”. Also, the “amount of IL-4” value in the assay on IL-4 stood at 831 pg/mL. For the same compound, the results for the “amount of IL-5” value in the assay with IL-5 [3] and in the assay on IL-5 [4] were 833 pg/mL and 839 pg/mL, respectively. Besides, the “amount of OVA-IgE antibody” value in the assay on OVA-IgE antibody was determined as 50 U/mL. Besides, the number of coughs entry in assay [5] is recorded as “significantly decreased the number of coughs”.

Values taken from patent US20260007634A1, “PHARMACEUTICAL COMPOSITIONS FOR THE TREATMENT OF ALLERGIC DISEASES” (KINKI UNIVERSITY, priority 2022, published 2026).
